Values joined by “and” are separate entries in the source; they are usually repeats but may differ in a detail not shown here. Identical values can stand only once. Like-named read-outs stand apart in the source and are kept apart here.

Two compounds from US20120309709A1, “Ion-Channel Regulator Compositions and Methods of Using Same” (priority 2007, published 2012) can be followed below.

Data set [1] relates to cells in the synovial tissue. The data set can be described thus: Trypan blue exclusion test on synovial tissue. To be noted: Examples 1-4. How it is done:
Multiple samples of synovial tissue, each approximately 20 mg, were obtained from a person with osteoarthritis (grade IV, Kellgren-Lawrence scale).

Data set [2] concerns MMPs produced by synovial tissue in response to IL-1β. To be noted: for activity of the MMPs, % of that measured in tissues not exposed to the regulator: IL-1β alone = 100%.
Setting [3] is: Example 1, person, regulator 0.01 mg/mL.
The mark [4] stands for this setting: Example 1, person, regulator 0.05 mg/mL.
Setting [5] is: Example 2, person, regulator 0.01 mg/mL.
The mark [6] stands for this setting: Example 2, person, regulator 0.05 mg/mL.
[7] abbreviates: Example 3, person, regulator 0.01 mg/mL.
Setting [8] is: Example 3, person, regulator 0.05 mg/mL.
Setting [9] is: Example 4, person, regulator 0.01 mg/mL.
Setting [10] is: Example 4, person, regulator 0.05 mg/mL.
[11] abbreviates: Example 5, person, single regulator 0.1 mg/mL.
Setting [12] is: Example 6, person, single regulator 0.1 mg/mL.
The mark [13] stands for this setting: Example 7, person, single regulator 0.1 mg/mL.

As to `COc1ccc([C@@H]2Sc3ccccc3N(CCN(C)C)C(=O)[C@@H]2OC(C)=O)cc1` [diltiazem], the “concentration at which death of cells in the synovial tissue was observed” value in data set [1] is “above 0.1 mg/mL”. Moreover, the “activity of the MMPs, % of that measured in tissues not exposed to the regulator” value was found to be 97% in data set [2] (setting [3]); 27.1% in data set [2] (setting [4]); 99% in data set [2] (setting [5]); 35.7% in data set [2] (setting [6]); 97% in data set [2] (setting [7]); 24.7% in data set [2] (setting [8]). Further, the “activity of the MMPs, % of that measured in tissues not exposed to the regulator” value in data set [2] (setting [9]) stood at 98.1%; in data set [2] (setting [10]) it was 22.6%; in data set [2] (setting [11]), 24.8%; in data set [2] (setting [12]), 29.8%; in data set [2] (setting [13]) it was 34.3%. Further, in data set [2] (Examples 1-4, concentration increased from 0.05 mg/mL up to 0.1 mg/mL, compared with level at 0.05 mg/mL), the “effect on blocking MMP activity of further increasing the concentration” value is listed as “no further effect”.
Turning to `COc1ccc(CCN(C)CCCC(C#N)(c2ccc(OC)c(OC)c2)C(C)C)cc1OC` (stereo not shown) [verapamil], the “concentration at which death of cells in the synovial tissue was observed” value in data set [1] is given as “above 0.1 mg/mL”. Also, the “activity of the MMPs, % of that measured in tissues not exposed to the regulator” value in data set [2] (setting [3]) worked out at 38%; in data set [2] (setting [4]), 18.9%; in data set [2] (setting [5]), 37.2%; in data set [2] (setting [6]) it was 21.5%; in data set [2] (setting [7]) it was 37%; in data set [2] (setting [8]) it was 23.2%. The “activity of the MMPs, % of that measured in tissues not exposed to the regulator” value is 35% in data set [2] (setting [9]); 13.6% and 13.1% in data set [2] (setting [10]); 16% in data set [2] (setting [11]); 21.9% in data set [2] (setting [12]); 17.4% in data set [2] (setting [13]).
